Data reported in the RepoRT retention time repository.

test: HILIC, Waters ACQUITY UPLC BEH Amide, 100 × 2.1 mm, 1.7 µm; A: water + 0.125% formic acid + 10 mM ammonium formate; B: 5% water + 95% acetonitrile + 0.125% formic acid + 10 mM ammonium formate; gradient (min/%B) 0/100 2/100 7.7/70 9.5/40 10.25/30 12.75/100 17/100; conditions: stereoisomer not certain

`CC(CN(C)C)CN1c2ccccc2CCc2ccccc21` (stereo unspecified) [Trimipramine] and `CC(Cc1ccccc1)N(C)Cc1ccccc1` (stereo unspecified) [Benzphetamine] are within 1.5-fold of each other in LC retention time: 2.25 min for the first, 2.03 min for the second.

First: O=C1CCC(C(=O)O)N1 (stereo unspecified) [Pyroglutamic acid]
Second: O=C1CCNC(=O)N1 [5,6-Dihydrouracil]
The LC retention time of the first is 4.9-fold higher: 8.71 min for the first, 1.77 min for the second.

Going from `Cc1ccc(-c2nc3ccc(C)cn3c2CC(=O)N(C)C)cc1` [Zolpidem] to `Cc1onc(-c2ccccc2)c1-c1ccc(S(N)(=O)=O)cc1` [Valdecoxib], the LC retention time falls from 1.62 min to 1.01 min (1.6-fold).

`COc1ccnc(CS(=O)c2nc3ccc(OC(F)F)cc3[nH]2)c1OC` (stereo unspecified) [Pantoprazole] and `COc1ccc(Cc2nccc3cc(OC)c(OC)cc23)cc1OC` [Papaverine] are within 1.5-fold of each other in LC retention time: 1.21 min for the first, 1.54 min for the second.

`COc1cc(C=CC=O)ccc1O` [Coniferylaldehyde] and `COc1cc(C=O)ccc1O` [Vanillin] are within 1.5-fold of each other in LC retention time: 1.14 min for the first, 1.15 min for the second.

`NC(Cc1c[nH]c2ccccc12)C(=O)O` (stereo unspecified) [Tryptophan] and `NCCc1c[nH]c2ccccc12` [Tryptamine] are the same in LC retention time: 6.92 min for the first, 6.92 min for the second.

`NC(CCCC(N)C(=O)O)C(=O)O` (stereo unspecified) [2,6-Diaminopimelic acid] and `NC(CCSSCCC(N)C(=O)O)C(=O)O` (stereo unspecified) [Homocystine] are within 1.5-fold of each other in LC retention time: 9.88 min for the first, 9.58 min for the second.

Going from `CNC(=C[N+](=O)[O-])NCCSCc1csc(CN(C)C)n1` [Nizatidine] to `CCS(=O)(=O)CCn1c([N+](=O)[O-])cnc1C` [Tinidazole], the LC retention time falls from 4.65 min to 1.04 min (4.5-fold).

`OCC(O)C(O)C(OC1OC(CO)C(O)C(O)C1O)C(O)CO` (stereo unspecified) [Lactitol] and `N[C@H]1[C@@H](OP(=O)(O)O)O[C@H](CO)[C@H](O)[C@@H]1O` [alpha-Galactosamine-1-phosphate] are within 1.5-fold of each other in LC retention time: 8.99 min for the first, 7.06 min for the second.

Compared with `COC1C(O)CC(=O)OC(C)CC=CC=CC(O)C(C)CC(CC=O)C1OC1OC(C)C(OC2CC(C)(O)C(OC(=O)CC(C)C)C(C)O2)C(N(C)C)C1O` (stereo unspecified) [Kitasamycin], `OCC1OC(OCC2OC(OC3(CO)OC(CO)C(O)C3O)C(O)C(O)C2O)C(O)C(O)C1O` (stereo unspecified) [Raffinose] is 4.5-fold higher in LC retention time: 2.04 min for the first, 9.17 min for the second.

`NC(CC(=O)O)c1ccc(O)cc1` (stereo unspecified) [3-Amino-3-(4-hydroxyphenyl)propionic acid] and `Nc1c(O)cccc1C(=O)CC(N)C(=O)O` (stereo unspecified) [3-Hydroxykynurenine] are within 1.5-fold of each other in LC retention time: 7.42 min for the first, 7.35 min for the second.

Going from `Nc1nc2c(ncn2C2CC(O)C(COP(=O)(O)O)O2)c(=O)[nH]1` (stereo unspecified) [2'-Deoxyguanosine 5'-monophosphate] to `COC1C(CO)OC(n2cnc3c(=O)[nH]c(N)nc32)C1O` (stereo unspecified) [3'-O-Methylguanosine], the LC retention time falls from 9.25 min to 5.8 min (1.6-fold).

`CCc1nn(CCCN2CCN(c3cccc(Cl)c3)CC2)c(=O)n1CCOc1ccccc1` [Nefazodone] and `CN1CCN(C2=Nc3ccccc3Oc3ccc(Cl)cc32)CC1` [Loxapine] are within 1.5-fold of each other in LC retention time: 1.88 min for the first, 2.18 min for the second.

`Oc1ccc(C=Cc2cc(O)cc(O)c2)cc1` [Resveratrol] and `Oc1ccc(C2COc3cc(O)ccc3C2)cc1` (stereo unspecified) [Equol] are within 1.5-fold of each other in LC retention time: 1.41 min for the first, 1.19 min for the second.

Compared with `COc1ccc(C2CNC(=O)C2)cc1OC1CCCC1` (stereo unspecified) [Rolipram], `COc1cccc(C2(O)CCCCC2CN(C)C)c1` (stereo unspecified) [Tramadol] is 2.2-fold higher in LC retention time: 1.12 min for the first, 2.52 min for the second.

`NC(=O)CC(N)C(=O)O` (stereo unspecified) [Asparagine] and `NC(CC(=O)O)C(=O)O` (stereo unspecified) [Aspartic acid] are within 1.5-fold of each other in LC retention time: 8.81 min for the first, 9.33 min for the second.

Compared with `COc1ccc(CC(C)NCC(O)c2ccc(O)c(NC=O)c2)cc1` (stereo unspecified) [Formoterol], `CC(C(O)c1ccc(O)cc1)N1CCC(Cc2ccccc2)CC1` (stereo unspecified) [Ifenprodil] is 1.6-fold lower in LC retention time: 5.18 min for the first, 3.17 min for the second.

`O=C(O)c1cccnc1C(=O)O` [Quinolinic acid] and `O=C(O)CC1C(=O)Nc2ccccc21` (stereo unspecified) [(2-oxo-2,3-dihydro-1H-indol-3-yl)acetic acid] are within 1.5-fold of each other in LC retention time: 2.16 min for the first, 2.02 min for the second.

`COC1C(CO)OC(n2ccc(N)nc2=O)C1O` (stereo unspecified) [3'-O-Methylcytidine] and `Nc1nc(=O)n(C2OC(CO)C(O)C2O)cc1CO` (stereo unspecified) [5-Hydroxymethylcytidine] are within 1.5-fold of each other in LC retention time: 5.09 min for the first, 7.54 min for the second.

Going from `Nc1nc2c(c(=O)[nH]1)N(C=O)C(CNc1ccc(C(=O)NC(CCC(=O)O)C(=O)O)cc1)CN2` (stereo unspecified) [Folinic acid] to `CC(C)(C)NC(=O)C1CC2CCCCC2CN1CC(O)C(Cc1ccccc1)NC(=O)C(CC(N)=O)NC(=O)c1ccc2ccccc2n1` (stereo unspecified) [Saquinavir], the LC retention time falls from 7.92 min to 2.85 min (2.8-fold).

First: CC(=O)NC(CC(C)C)C(=O)O (stereo unspecified) [N-Acetylleucine]
Second: CC(C)CC(N)C(=O)NC(C)C(=O)O (stereo unspecified) [Leu-Ala]
The LC retention time of the first is 2.2-fold lower: 2.29 min for the first, 5 min for the second.

First: CN(C)CCC(c1ccc(Br)cc1)c1ccccn1 (stereo unspecified) [Dexbrompheniramine]
Second: CCOC(=O)c1cncn1C(C)c1ccccc1 (stereo unspecified) [Etomidate]
The LC retention time of the first is 2.6-fold higher: 2.56 min for the first, 0.98 min for the second.

Compared with `Cn1cncc1CC(NC(=O)CCN)C(=O)O` (stereo unspecified) [Anserine], `CCCC(=O)NCC(=O)O` [Butyrylglycine] is 2.5-fold lower in LC retention time: 9.49 min for the first, 3.73 min for the second.

Going from `O=C(C=CC=Cc1ccc2c(c1)OCO2)N1CCCCC1` [Piperine] to `Fc1ccc(C2CCNCC2COc2ccc3c(c2)OCO3)cc1` (stereo unspecified) [Paroxetine], the LC retention time rises from 1.1 min to 3.08 min (2.8-fold).

`NC1CCCCC1` [Cyclohexanamine] and `CC1(C)SC2C(N=CN3CCCCCC3)C(=O)N2C1C(=O)O` (stereo unspecified) [Mecillinam] are within 1.5-fold of each other in LC retention time: 5.1 min for the first, 4.28 min for the second.

Compared with `Nc1nc2c(ncn2C2OC3COP(=O)(O)OC3C2O)c(=O)[nH]1` (stereo unspecified) [Guanosine-3',5'-cyclic monophosphate], `Nc1nc(Cl)nc2c1ncn2C1CC(O)C(CO)O1` (stereo unspecified) [Cladribine] is 4.3-fold lower in LC retention time: 8.39 min for the first, 1.95 min for the second.

`O=c1ccn(C2CC(O)C(CO)O2)c(=O)[nH]1` (stereo unspecified) [2-Deoxyuridine] and `Cc1cn(C2CC(O)C(CO)O2)c(=O)[nH]c1=O` (stereo unspecified) [Thymidine] are within 1.5-fold of each other in LC retention time: 2.96 min for the first, 2.57 min for the second.

First: NCC(O)CCC(N)C(=O)O (stereo unspecified) [delta-Hydroxylysine]
Second: CCCC(N)C(=O)O (stereo unspecified) [Norvaline]
The LC retention time of the first is 2-fold higher: 9.77 min for the first, 4.89 min for the second.

`CCOC(=O)C1=C(C)NC(C)=C(C(=O)OCC)C1c1ccccc1C=CC(=O)OC(C)(C)C` [Lacidipine] and `COCC1=C(C(=O)OC(C)OC(=O)OC(C)C)N2C(=O)C(NC(=O)C(=NOC)c3csc(N)n3)C2SC1` (stereo unspecified) are within 1.5-fold of each other in LC retention time: 0.94 min for the first, 1.12 min for the second.

`C=C(C)C1CC=C(C)CC1` (stereo unspecified) [Limonene] and `CC(=O)C1(O)CCC2C3CC(C)C4=CC(=O)CCC4(C)C3CCC21C` (stereo unspecified) [Medroxyprogesterone] are within 1.5-fold of each other in LC retention time: 0.92 min for the first, 1.01 min for the second.

`Nc1ncnc2nc[nH]c12` [Adenine] and `Nc1ncnc2c1ncn2C1OC(CO)CC1O` (stereo unspecified) [Cordycepin] are within 1.5-fold of each other in LC retention time: 4.71 min for the first, 3.54 min for the second.

Compared with `CS(=O)CCCCN=C=S` (stereo unspecified) [Sulforaphane], `CCCCCN=C(N)NN=Cc1c[nH]c2ccc(OC)cc12` [Tegaserod] is 2.5-fold higher in LC retention time: 1.14 min for the first, 2.84 min for the second.

`CCOC(=O)C1(c2ccccc2)CCN(CCC(C#N)(c2ccccc2)c2ccccc2)CC1` [Diphenoxylate] and `CN1C(CC(=O)c2ccccc2)CCCC1CC(O)c1ccccc1` (stereo unspecified) [Lobeline A] are within 1.5-fold of each other in LC retention time: 1.41 min for the first, 2.02 min for the second.

First: COC1=C(OC)C(=O)C(CCCCCCCCCCO)=C(C)C1=O [Idebenone]
Second: CCCCCCCCCCCCCCCC(=O)OC(CC(=O)[O-])C[N+](C)(C)C (stereo unspecified) [Palmitoylcarnitine cation]
The LC retention time of the first is 3.4-fold lower: 0.96 min for the first, 3.23 min for the second.

Going from `CC(=O)Nc1ccc2c(c1)Cc1ccccc1-2` [N-2-Fluorenylacetamide] to `CN=C1CN(O)C(c2ccccc2)=c2cc(Cl)ccc2=N1` [Chlordiazepoxide], the LC retention time falls from 4.74 min to 1.35 min (3.5-fold).

`CN1C2CCC1CC(OC(=O)c1c[nH]c3ccccc13)C2` (stereo unspecified) [Tropisetron] and `CN1C2CCC1CC(OC(=O)C(CO)c1ccccc1)C2` (stereo unspecified) [Atropine] are within 1.5-fold of each other in LC retention time: 3.81 min for the first, 4.32 min for the second.

`COC(=O)C1C(OC(=O)c2ccccc2)CC2CCC1N2C` (stereo unspecified) [Cocaine] and `CN1CCN2c3ncccc3Cc3ccccc3C2C1` (stereo unspecified) [Mirtazapine] are within 1.5-fold of each other in LC retention time: 2.2 min for the first, 3.08 min for the second.

First: O=C1C2CCCCC2C(=O)N1CCCCN1CCN(c2nsc3ccccc23)CC1 (stereo unspecified) [Perospirone]
Second: CN1C(=O)COc2c(C(=O)NC3CN4CCC3CC4)cc(Cl)cc21 (stereo unspecified) [Azasetron]
The LC retention time of the first is 2.2-fold lower: 2.14 min for the first, 4.66 min for the second.

`O=C(O)CCCCC1SCC2NC(=O)NC21` (stereo unspecified) [Biotin] and `CC(C)C(=O)NCC(=O)O` [N-Isobutyrylglycine] are within 1.5-fold of each other in LC retention time: 2.85 min for the first, 3.6 min for the second.

Going from `Cn1nnc2c(C(N)=O)ncn2c1=O` [Temozolomide] to `O=c1[nH]c(=O)c2nccnc2[nH]1` [Lumazine], the LC retention time rises from 1.33 min to 2.49 min (1.9-fold).

Going from `O=Cc1cccc(O)c1` [3-Hydroxybenzaldehyde] to `O=CC=Cc1ccccc1` [Cinnamaldehyde], the LC retention time rises from 1.18 min to 9.18 min (7.8-fold).

Going from `CCCCCCCCCCCCCCC(O)C(O)C(N)CO` (stereo unspecified) [Phytosphingosine] to `NC(N)=NOCCC(N)C(=O)O` (stereo unspecified) [Canavanine], the LC retention time rises from 5.18 min to 9.42 min (1.8-fold).

First: C[S+](CCC(N)C(=O)[O-])CC1OC(n2cnc3c(N)ncnc32)C(O)C1O (stereo unspecified) [S-Adenosyl-methionine]
Second: Cc1ccsc1C(=CCCN1CCCC(C(=O)O)C1)c1sccc1C (stereo unspecified) [Tiagabine]
The LC retention time of the first is 2.5-fold higher: 9.7 min for the first, 3.94 min for the second.

Compared with `Cc1ncc(COP(=O)(O)O)c(C=O)c1O` [Pyridoxal-5-phosphate], `COc1cc(C)c(Cc2cnc(N)nc2N)cc1OC` [Ormetroprim] is 1.8-fold lower in LC retention time: 7.7 min for the first, 4.19 min for the second.

Going from `CC(=O)Oc1ccc2c(C)cc(=O)oc2c1` [4-Methylumbelliferyl acetate] to `NC1CCN(c2nc3c(cc2F)c(=O)c(C(=O)O)cn3-c2ccc(F)cc2F)C1` (stereo unspecified) [Tosufloxacin], the LC retention time rises from 1.06 min to 4.87 min (4.6-fold).

`CC(N)C(=O)O` (stereo unspecified) [Alanine] showed an LC retention time of 8.05 min.
